Here are results for one compound from the NIST ThermoML archive (doi:10.1021/je1005054).

Numbers after ± are expanded uncertainties.

For this series the following is noted: Liquid, Calculated from knudsen effusion weight loss.

As for `O=C1CCCCCN1` [1-aza-2-cycloheptanone], the “vapor or sublimation pressure” value is recorded as 0.0263 ± 0.0041 kPa (343 K); 0.0372 ± 0.006 kPa (347.9 K); 0.0374 ± 0.006 kPa (348 K); 0.0523 ± 0.0086 kPa (352.9 K); 0.0527 ± 0.0087 kPa (353 K).
